Laboratory results reported in patent publication US5099015A, “Trifluoromethyl 1-carba(1-dethia)cephems” (Eli Lilly and Company, priority 1991, dated 1992).
Values after ≈ are worked out from the molar mass of the structure shown. Like-named read-outs stand apart in the source and are kept apart here.

Experiments:
Experiment in all cases: Agar dilution antibacterial test (MIC)
Type in all cases: cell-based
[1] = test system: Klebsiella pneumoniae KAE
Method: (§1) Fresh overnight cultures of test bacteria were diluted to approximately 1x(10)4 cells/microliter and applied in one microliter volumes to the surfaces of the agar plates. The innoculated plates were incubated overnight at 35° C. in ambient air. Minimum inhibitory concentration (mic) endpoints were recorded as the lowest antibiotic concentrations in micrograms per milliliter that inhibited the development of visible growth on the plates. The following summarizes the results of such tests with the compounds of the examples listed above.

[2] = test system: Enterobacter aerogenes EB17
Method: as §1

[3] = test system: Enterobacter aerogenes C32
Method: as §1

[4] = test system: Klebsiella pneumoniae X26
Method: as §1

[5] = test system: Staphylococcus epidermidis EPI270
Method: as §1

[6] = test system: Staphylococcus aureus V41
Method: as §1

Salmonella X514 = test system: Salmonella X514
Method: as §1

[7] = test system: Staphylococcus pneumoniae Park 1
Method: as §1

[8] = test system: Staphylococcus epidermidis 222
Method: as §1

Enterobacter cloacae EB5 = test system: Enterobacter cloacae EB5
Method: as §1

Citro CF17 = test system: Citro CF17
Method: as §1

[9] = test system: Staphylococcus aureus S13E
Method: as §1

Escherichia coli N10 = test system: Escherichia coli N10
Method: as §1

[10] = test system: Staphylococcus aureus NRRL X1.1
Method: as §1

Acom AC12 = test system: Acom AC12
Method: as §1

Salmonella 1335 = test system: Salmonella 1335
Method: as §1

[11] = test system: Klebsiella pneumoniae X68
Method: as §1

[12] = test system: Enterobacter cloacae 265A
Method: as §1

Morg morg PR15 = test system: Morg morg PR15
Method: as §1

Serratia SE3 = test system: Serratia SE3
Method: as §1

[13] = test system: Staphylococcus aureus X400
Method: as §1

[14] = test system: Enterococcus faecalis 2041
Method: as §1

Serratia X99 = test system: Serratia X99
Method: as §1

Proteus rett C24 = test system: Proteus rett C24
Method: as §1

Escherichia coli EC14 = test system: Escherichia coli EC14
Method: as §1

Enterococcus faecium X66 = test system: Enterococcus faecium X66
Method: as §1

Proteus incon PR33 = test system: Proteus incon PR33
Method: as §1

Shig sonn. N9 = test system: Shig sonn. N9
Method: as §1

Escherichia coli TEM = test system: Escherichia coli TEM
Method: as §1

[15] = test system: Haemophilus influenzae C.L.
Method: as §1

[16] = test system: Staphylococcus pyogenes C203
Method: as §1

[17] = test system: Haemophilus influenzae 76
Method: as §1

[18] = Klebsiella aerogenes, read-out: MIC

In the case of `Nc1nc(C(=NO)C(=O)N[C@@H]2C(=O)N3C(C(=O)O)=C(C(F)(F)F)CC[C@H]23)cs1` [Compound 5], the MIC [1] is reported as “.06 µg/mL”, the MIC [2] is reported as “.06 µg/mL” and the MIC [3] is reported as “.25 µg/mL”. For the same molecule, the MIC [4] was “.015 µg/mL”, the MIC [5] was 4 µg/mL (≈ 9.54 µM) and the MIC [6] was 2 µg/mL (≈ 4.77 µM). The MIC (Salmonella X514) was “.015 µg/mL”, the MIC [7] was “.015 µg/mL” and the MIC [8] was 1 µg/mL (≈ 2.38 µM). For the same molecule, the MIC (Enterobacter cloacae EB5) was “.125 µg/mL”, the MIC (Citro CF17) was 16 µg/mL (≈ 38.2 µM) and the MIC [9] was 4 µg/mL (≈ 9.54 µM). For the same molecule, the MIC (Escherichia coli N10) was “.125 µg/mL”, the MIC [10] was 1 µg/mL (≈ 2.38 µM) and the MIC (Acom AC12) was 2 µg/mL (≈ 4.77 µM). The MIC (Salmonella 1335) was “.06 µg/mL”, the MIC [11] was “.06 µg/mL” and the MIC [12] was 16 µg/mL (≈ 38.2 µM). For the same molecule, the MIC (Morg morg PR15) was 2 µg/mL (≈ 4.77 µM), the MIC (Serratia SE3) was 8 µg/mL (≈ 19.1 µM) and the MIC [13] was 8 µg/mL (≈ 19.1 µM). For the same molecule, the MIC [14] was 1 µg/mL (≈ 2.38 µM), the MIC (Serratia X99) was “.5 µg/mL” and the MIC (Proteus rett C24; Proteus rett C24) was “.125 µg/mL”. The MIC (Escherichia coli EC14) was “.03 µg/mL”, the MIC (Enterococcus faecium X66) was 8 µg/mL (≈ 19.1 µM) and the MIC (Proteus incon PR33) was “.25 µg/mL”. For the same molecule, the MIC (Shig sonn. N9) was “.06 µg/mL” and the MIC (Escherichia coli TEM) was “.03 µg/mL”.
For `N[C@@H](C(=O)N[C@@H]1C(=O)N2C(C(=O)O)=C(C(F)(F)F)CC[C@H]12)c1cccc(Br)c1` [Compound 7], the MIC ([15]; read-out: MIC) was 0.5 µg/mL (≈ 1.08 µM), the MIC ([1]; read-out: MIC) was 16 µg/mL (≈ 34.6 µM) and the MIC [2, 18] was 32 µg/mL (≈ 69.2 µM). It also gave an MIC [3, 18] of 16 µg/mL (≈ 34.6 µM), an MIC ([4]; read-out: MIC) of 0.25 µg/mL (≈ 0.541 µM) and an MIC ([5]; read-out: MIC) of 1 µg/mL (≈ 2.16 µM). It also gave an MIC ([6]; read-out: MIC) of 4 µg/mL (≈ 8.65 µM), an MIC (Salmonella X514; read-out: MIC) of 4 µg/mL (≈ 8.65 µM) and an MIC ([7]; PARK1, read-out: MIC) of 0.125 µg/mL (≈ 0.27 µM). For the same molecule, the MIC ([8]; read-out: MIC) was 1 µg/mL (≈ 2.16 µM), the MIC (Enterobacter cloacae EB5; read-out: MIC) was 64 µg/mL (≈ 138 µM) and the MIC (Citro CF17; read-out: MIC) was 32 µg/mL (≈ 69.2 µM). It also gave an MIC ([16]; read-out: MIC) of 0.125 µg/mL (≈ 0.27 µM), an MIC [9] of 8 µg/mL (≈ 17.3 µM) and an MIC (Escherichia coli N10; read-out: MIC) of 8 µg/mL (≈ 17.3 µM). For the same molecule, the MIC ([10]; NRRLX1.1, read-out: MIC) was 1 µg/mL (≈ 2.16 µM), the MIC (Salmonella 1335; read-out: MIC) was 16 µg/mL (≈ 34.6 µM) and the MIC ([11]; read-out: MIC) was 4 µg/mL (≈ 8.65 µM). It also gave an MIC ([12]; read-out: MIC) of 64 µg/mL (≈ 138 µM), an MIC (Morg morg PR15; read-out: MIC) of 16 µg/mL (≈ 34.6 µM) and an MIC (Serratia SE3) greater than 128 µg/mL. The MIC ([13]; read-out: MIC) was 16 µg/mL (≈ 34.6 µM), the MIC ([14]; read-out: MIC) was 8 µg/mL (≈ 17.3 µM) and the MIC ([17]; read-out: MIC) was 1 µg/mL (≈ 2.16 µM). For the same molecule, the MIC (Serratia X99; read-out: MIC) was 64 µg/mL (≈ 138 µM), the MIC (Proteus rett C24) was 128 µg/mL (≈ 277 µM) and the MIC (Escherichia coli EC14; read-out: MIC) was 4 µg/mL (≈ 8.65 µM). It also gave an MIC (Enterococcus faecium X66; read-out: MIC) of 16 µg/mL (≈ 34.6 µM), an MIC (Proteus incon PR33; read-out: MIC) of 8 µg/mL (≈ 17.3 µM) and an MIC (Escherichia coli TEM; read-out: MIC) of 4 µg/mL (≈ 8.65 µM).
Molecule `N[C@@H](C(=O)N[C@@H]1C(=O)N2C(C(=O)O)=C(C(F)(F)F)CC[C@H]12)c1cccc(F)c1` [Compound 8] has an MIC ([15]; read-out: MIC) of 2 µg/mL (≈ 4.98 µM), an MIC ([1]; read-out: MIC) of 16 µg/mL (≈ 39.9 µM) and an MIC [2, 18] of 8 µg/mL (≈ 19.9 µM). The MIC [3, 18] was 16 µg/mL (≈ 39.9 µM), the MIC ([4]; read-out: MIC) was 2 µg/mL (≈ 4.98 µM) and the MIC ([5]; read-out: MIC) was 4 µg/mL (≈ 9.97 µM). It also gave an MIC ([6]; read-out: MIC) of 16 µg/mL (≈ 39.9 µM), an MIC (Salmonella X514; read-out: MIC) of 2 µg/mL (≈ 4.98 µM) and an MIC ([7]; PARK1, read-out: MIC) of 0.25 µg/mL (≈ 0.623 µM). It also gave an MIC ([8]; read-out: MIC) of 4 µg/mL (≈ 9.97 µM), an MIC (Enterobacter cloacae EB5; read-out: MIC) of 16 µg/mL (≈ 39.9 µM) and an MIC (Citro CF17; read-out: MIC) of 16 µg/mL (≈ 39.9 µM). For the same molecule, the MIC ([16]; read-out: MIC) was 0.06 µg/mL (≈ 0.15 µM), the MIC [9] was 32 µg/mL (≈ 79.7 µM) and the MIC (Escherichia coli N10; read-out: MIC) was 4 µg/mL (≈ 9.97 µM). For the same molecule, the MIC ([10]; NRRLX1.1, read-out: MIC) was 2 µg/mL (≈ 4.98 µM), the MIC (Salmonella 1335; read-out: MIC) was 4 µg/mL (≈ 9.97 µM) and the MIC ([11]; read-out: MIC) was 2 µg/mL (≈ 4.98 µM). The MIC ([12]; read-out: MIC) was 32 µg/mL (≈ 79.7 µM), the MIC (Morg morg PR15; read-out: MIC) was 32 µg/mL (≈ 79.7 µM) and the MIC (Serratia SE3; read-out: MIC) was 64 µg/mL (≈ 159 µM). It also gave an MIC ([13]; read-out: MIC) of 64 µg/mL (≈ 159 µM), an MIC ([14]; read-out: MIC) of 32 µg/mL (≈ 79.7 µM) and an MIC ([17]; read-out: MIC) of 2 µg/mL (≈ 4.98 µM). It also gave an MIC (Serratia X99; read-out: MIC) of 32 µg/mL (≈ 79.7 µM), an MIC (Proteus rett C24; Proteus rett C24, read-out: MIC) of 16 µg/mL (≈ 39.9 µM) and an MIC (Escherichia coli EC14; read-out: MIC) of 4 µg/mL (≈ 9.97 µM). The MIC (Enterococcus faecium X66; read-out: MIC) was 64 µg/mL (≈ 159 µM), the MIC (Proteus incon PR33; read-out: MIC) was 16 µg/mL (≈ 39.9 µM) and the MIC (Shig sonn. N9; read-out: MIC) was 2 µg/mL (≈ 4.98 µM). It also gave an MIC (Escherichia coli TEM; read-out: MIC) of 2 µg/mL (≈ 4.98 µM).
`NC(C(=O)N[C@@H]1C(=O)N2C(C(=O)O)=C(C(F)(F)F)CC[C@H]12)c1cccc(C(F)(F)F)c1` (stereo partly drawn) [Compound 9, [6R,7S]-7-β-[D-α-(amino)-3-trifluoromethylphenylacetylamino]-3-trifluoromethyl-1-carba-1-carba-1-dethia3-cephem-4-carboxylic acid] was tested, and the MIC [15] was 1 µg/mL (≈ 2.22 µM), the MIC [1] was 64 µg/mL (≈ 142 µM) and the MIC [2] was 128 µg/mL (≈ 284 µM). The MIC [3] was 128 µg/mL (≈ 284 µM), the MIC [4] was 1 µg/mL (≈ 2.22 µM) and the MIC [5] was 4 µg/mL (≈ 8.86 µM). For the same molecule, the MIC [6] was 4 µg/mL (≈ 8.86 µM), the MIC (Salmonella X514) was 32 µg/mL (≈ 70.9 µM) and the MIC [7] was “.125 µg/mL”. The MIC [8] was 1 µg/mL (≈ 2.22 µM), the MIC (Enterobacter cloacae EB5) was 4 µg/mL (≈ 8.86 µM) and the MIC (Citro CF17) was 128 µg/mL (≈ 284 µM). It also gave an MIC [16] of 6 µg/mL (≈ 13.3 µM), an MIC [9] of 16 µg/mL (≈ 35.5 µM) and an MIC (Escherichia coli N10) of 32 µg/mL (≈ 70.9 µM). It also gave an MIC [10] of 2 µg/mL (≈ 4.43 µM), an MIC (Acom AC12) of 32 µg/mL (≈ 70.9 µM) and an MIC (Salmonella 1335) of 64 µg/mL (≈ 142 µM). For the same molecule, the MIC [11] was 16 µg/mL (≈ 35.5 µM), the MIC [12] was 128 µg/mL (≈ 284 µM) and the MIC (Morg morg PR15) was 32 µg/mL (≈ 70.9 µM). The MIC (Serratia SE3) was greater than 128 µg/mL, the MIC [13] was 16 µg/mL (≈ 35.5 µM) and the MIC [14] was 16 µg/mL (≈ 35.5 µM). The MIC [17] was 1 µg/mL (≈ 2.22 µM), the MIC (Serratia X99) was 128 µg/mL (≈ 284 µM) and the MIC (Proteus rett C24; Proteus rett C24) was 64 µg/mL (≈ 142 µM). For the same molecule, the MIC (Escherichia coli EC14) was 8 µg/mL (≈ 17.7 µM), the MIC (Enterococcus faecium X66) was 32 µg/mL (≈ 70.9 µM) and the MIC (Proteus incon PR33) was 32 µg/mL (≈ 70.9 µM). The MIC (Escherichia coli TEM) was 16 µg/mL (≈ 35.5 µM).
